Experimental findings from a melting point compilation (Tetko et al.; mined from patent text by program, amines drawn as free bases though some values may be those of a salt) are described below.

In the case of `Cc1cc(C)cc(-c2c(-c3ccncc3)sc3nc(=O)cc(N)n23)c1`, the melting point – broadly, the temperature of the solid-liquid transition – is 275 to 278 °C.

The compound `CC(=O)NC(C)(C(=O)NS(=O)(=O)c1ccc(C)cc1)C(C)C` (configuration not stated) had a melting point of 198 to 199 °C.

`Cc1oc(-c2ccccc2)nc1COc1ccc(CN(O)C(N)=O)cc1Cl` registered a melting point of 180 to 182 °C.

For the compound `CNc1nc(-c2cccc(NC(=O)c3ccccc3)c2)c2cc(O)c(OC)cc2n1`, the melting point lay in the range of 145 to 147 °C.

With `COc1nc(-c2ccccc2)c2c(n1)N(c1c(F)cccc1F)C(=O)NC2`, the melting point was 221 to 224 °C.

The compound `O=C(O)c1ccc(NC(=O)C(CS)Cc2ccccc2)cc1Cl` (configuration not stated) gave a melting point of 65 to 70 °C.

Regarding `CC#CCOc1cc(Oc2cccc(C(C)=O)c2)ncn1`, the melting point was determined as 94 °C.

Take `COc1ccc(S(=O)(=O)NCc2ccccc2)c2c1oc1ccccc12`: the melting point lay in the range of 180 to 185 °C.

Take `O=CC=Cc1ccc(O)c(O)c1`: the melting point lay in the range of 200 to 202 °C.

The compound `CC(C)(C)c1ccc(S(=O)(=O)Nc2cc(Cl)ncn2)cc1` gave a melting point of 225 to 226 °C.

In turn, `O=C(CCC[C@H](O)c1ccc(F)cc1)N1C(=O)OC[C@@H]1c1ccccc1` returned a melting point of 39.7 °C.

`CC(F)c1nc2ncnn2c(NC2CCC(C(C)(C)C)CC2)c1Cl` (configuration not stated) displayed a melting point of 138 to 139 °C.

With `COC(=O)c1ccc(-c2ccc(OC)c(C(C)(C)C)c2)s1`, the melting point lay within 94 to 95 °C.

`COc1cc2c(c3c1OC(C)(C)C3)C(c1cccc(NC(=O)c3ccc(Cl)nc3Cl)c1)=NC(C)(C)C2` returned a melting point of 130 to 132 °C.

Compound `Cc1ccccc1Nc1c(C(=O)C(C)C)cnc2c(O)cccc12` returned a melting point of 131 to 133 °C.

The compound `COc1ccc(Nc2ccc3cc(O)ccc3c2)cc1` returned a melting point of 152 to 153 °C.

In turn, `O=C(O)COc1ccc(/C=C/C(=O)C(F)(F)F)cc1` came in with a melting point of 156 °C.

In turn, `Cc1ccc(C(=O)NC(NC(=S)Nc2cc(F)ccc2F)C(F)(F)F)cc1` (configuration not stated) showed a melting point of 183 to 185 °C.

`Nc1cc(-c2cccnc2)ccc1S(N)(=O)=O` displayed a melting point of 240 to 243 °C.

`O=C1C=CC(O)(c2cc3ccccc3n2S(=O)(=O)c2ccccc2)c2ccccc21` (configuration not stated) returned a melting point of 175 to 177 °C.

Turning to `CN(C)CCc1ccc([N+](=O)[O-])c2[nH]ncc12`, the melting point lay within 145 to 146 °C.

Turning to `CCOC(=O)C(Cc1c[nH]c2cc(Cl)cc(Cl)c12)=NO`, the melting point is 175 to 176 °C.

`Cc1nc(-c2ccccc2)nc(OCC(=O)N(CC2CC2)c2ccccc2)c1C` yielded a melting point of 119 to 121 °C.

Compound `CCc1nc2c(cnn2CC)c(NC2CCOCC2)c1CNC(=O)c1cccc(C(=O)NCc2ccc(Cl)c(-c3cccc(CN4CC(C)NC(C)C4)c3)c2)c1` (configuration not stated) showed a melting point of 121 to 124 °C.

Turning to `N#Cc1ccc(C2=NOC3(CCN(C(=O)CCCC(=O)O)CC3)C2)cc1`, the melting point was 183 to 185 °C.

`Cn1cc(C(=O)Nc2ccccc2-c2ccc(C(F)(F)F)cc2)c(C(F)F)n1`: the melting point was 164 to 165 °C.

Turning to `CCOC(=O)COc1ccc([N+](=O)[O-])cc1C(F)(F)F`, the melting point is 45 to 46 °C.

In the case of `CN(C)C=Nc1c(Cl)cc(N=Cc2c(Cl)cccc2Cl)cc1Cl`, the melting point was in the range of 84 to 86 °C.

Take `Cc1ccc(N2C(=O)C(O)=C(C(=O)c3ccc(C(C)C)cc3)C2c2ccc(C(C)C)cc2)nn1` (configuration not stated): the melting point worked out at 271 °C.

Consider `CCOC(=O)C1=C(C)Nc2nc(N)nc(N3CCOCC3)c2C1c1cccc([N+](=O)[O-])c1` (configuration not stated), for which the melting point was 208 °C.

`C=CCOc1cc([N+](=O)[O-])ccc1OCC1CO1` (configuration not stated) yielded a melting point of 64 °C.

`CC(CCn1c(=O)[nH]c2cc(F)ccc21)N1CCN(c2ccc(F)cc2)CC1` (configuration not stated) showed a melting point of 188 to 193 °C.

Regarding `COc1ccc(-c2coc3ccc(-c4nnc(SC)o4)cc23)cc1`, the melting point was in the range of 156 to 157 °C.

Take `CCCCCCCC(=O)N1CCc2nnc(NN)cc2C1`: the melting point fell in the range of 164 to 166 °C.

As to `O=C(O)C1CCCC1c1ccc2c(c1)OC[C@H](Cc1ccccc1)[C@H]2O` (relative stereo), the melting point was in the range of 129 to 130 °C.

`COc1ccc(Br)c2c1C(=O)CC2` gave a melting point of 125 to 128 °C.

In turn, `COc1nc2sc(S(=O)(=O)Cc3ccccc3)nn2c(=O)c1[N+](=O)[O-]` had a melting point of 216 to 218 °C.

`Oc1cc(Br)c(-c2c3ccccc3c(Br)c3sc4ccccc4c23)cc1O`: the melting point lay within 138 to 140 °C.

In turn, `CCN(C(=O)COc1nc(-c2ccc(N)cc2)nc(C)c1C)c1ccccc1` gave a melting point of 183 to 185 °C.

In turn, `COc1cc2c(c(C(C)C)c1OC)CC(C)C(Br)=C2` (configuration not stated) gave a melting point of 71 to 72 °C.

`Cc1ccc(S(=O)(=O)OCC(O)(CC(C)c2ccccc2)C(F)(F)F)cc1` (configuration not stated) gave a melting point of 95 to 96 °C.

`NS(=O)(=O)c1ccc(-c2cnn(C=C(F)C(F)F)c(=O)c2-c2ccc(F)cc2)cc1` returned a melting point of 190 to 193 °C.

For `CCCCc1nc(SCC)c(C(=O)O)n1Cc1ccc(C(=O)O)cc1`, the melting point came to 168 °C.

`O=C(Cl)N1CCCCCCCCCCCNC1=O` gave a melting point of 65 to 67 °C.

As for `CNC(=O)N1CCC(c2nn(-c3ccccc3)c3cc(F)ccc23)CC1`, the melting point is 163 to 165 °C.

Turning to `COc1ccc(CNc2ccc(Cl)cc2C(=O)C(F)(F)F)cc1OC`, the melting point lay in the range of 82 to 84 °C.

Take `CC(=O)SCCC(=O)N1CCC[C@H]1C(=O)O`: the melting point was in the range of 89 to 90 °C.

For `CN1CCN(c2ccc(Nc3cc(-c4cccc(N5CCc6c(cc7n6CCCC7)C5=O)c4CO)cn(C)c3=O)nc2)CC1`, the melting point was in the range of 180 to 181 °C.

In the case of `Cc1cc(C)c(CP(=O)(c2ccccc2)c2ccccc2)c(-c2ccc(F)c(C)c2)c1`, the melting point is 109 to 111 °C.

The compound `O=C(c1ccc(F)c(Br)c1)N1CCC(Br)C(c2ccccc2)=N1` (configuration not stated) showed a melting point of 147 to 148 °C.

`Cc1[nH]cnc1CSCCO` had a melting point of 74 to 76 °C.

`CC(C)(C)C(=O)Nc1ccc(C(F)(F)F)cc1` displayed a melting point of 154 to 158 °C.

For the compound `COc1cc2c(cc1OC)N(C(=O)c1ccc(-c3ccccc3C(F)(F)F)c(C)c1)Cc1ccc(C(=O)N3CCC(=O)CC3)n1C2`, the melting point fell in the range of 132 to 134 °C.

Regarding `CC[C@@]1(O)CC(=O)c2c(OC)ccc(OC)c2C1`, the melting point lay in the range of 132 to 134 °C.

In turn, `Cc1oc(-c2ccccc2)nc1COc1ccc(COc2cncc(CC(=O)O)c2)cc1` returned a melting point of 139 to 140 °C.

In turn, `CN(C)C(=S)SCn1c(Br)c(Br)c(S(=O)(=O)C(F)(F)F)c1-c1ccc(Cl)cc1` registered a melting point of 185 to 187 °C.

The compound `Cc1nc2c(cc1NC(=N)N=C=O)CCCCC2CO[N+](=O)[O-]` (configuration not stated) yielded a melting point of 120 to 121 °C.

`N#Cc1cc(N)ccc1N1CCC(N2CCSCC2)CC1` registered a melting point of 138 °C.

As for `CS(=O)(=O)c1ccccc1-c1ccc(C(=O)O)cc1`, the melting point fell in the range of 273 to 275 °C.

`C=CCOC(=O)c1ccc(COC(=O)c2cc(C(C)(C)C)c(O)c(C(C)(C)C)c2)cc1` gave a melting point of 100 to 101 °C.

Compound `CCn1cc(C(=O)O)c(=O)c2cc(F)c(N3CCNC(c4sc5ccc(Cl)cc5c4C)C3)cc21` (configuration not stated) registered a melting point of 300 to 305 °C.

Consider `CCCCCCCCCC(CC)C(=O)Nc1cc(C(=O)O)ccc1C` (racemic), for which the melting point was in the range of 217 to 220 °C.

In turn, `CCN(CC)C(=O)Oc1cc(C(C)C)ccc1C1(O)C(=O)c2ccccc2C1=O` registered a melting point of 103 to 106 °C.

As to `CCCCOc1cc(C(=O)O)n(Cc2ccc(Cl)cc2Cl)n1`, the melting point is 154 to 155 °C.

As to `CNS(=O)(=O)c1ccc(Nc2cc(-n3ccc(C(F)(F)F)n3)c3ccccc3n2)cc1`, the melting point was 220 to 222 °C.

As for `CC(C)(C)OC(=O)N(C(=O)OC(C)(C)C)c1cnc(-c2cncc(F)c2)s1`, the melting point lay within 94 to 96 °C.

`CCNC(=O)ON=C1CCOc2ccccc21` returned a melting point of 110 to 111 °C.

Turning to `CC1(C)CCc2cc(OCc3ccccc3)c(O)c([N+](=O)[O-])c2C1=O`, the melting point lay within 146 to 149 °C.

`Cc1cccc(C)c1-n1cnc(NCC(F)(F)F)nc1=O`: the melting point fell in the range of 212 to 213 °C.

`NC(=O)c1cnn2c(=O)n(CCCl)nnc12` showed a melting point of 193 to 194 °C.

In turn, `CCCS(=O)(=O)NCc1ccc2ccn(C3CCN(CCc4ccc(F)cc4)CC3)c2c1` displayed a melting point of 80 to 81 °C.

In turn, `N#CCCC1CN(C(=O)OCc2ccccc2)CCO1` (configuration not stated) gave a melting point of 59 to 60 °C.

On to `CCOC(=O)Cc1[nH]c(C(=O)c2ccccc2)c(C)c1C(=O)O`, for which the melting point lay in the range of 183 to 185 °C.

Compound `CN1CCC=C(c2cccc3[nH]ccc23)C1` returned a melting point of 175 °C.

For the compound `COc1cc2c(c3c1OC(C)(C)C3)C(C)=NC(C)(C)C2`, the melting point was 112 to 113 °C.

As to `CCC1c2cc(OC)c(OC)cc2C(C=Cc2ccc(N)cc2)=NN(C(C)=O)C1C` (configuration not stated), the melting point was in the range of 104 to 106 °C.

In the case of `Cc1cccc(Cn2ncc3c(N4CCN(C(=O)OC(C)(C)C)CC4)ncnc32)c1`, the melting point fell in the range of 130 to 131 °C.

As to `N#Cc1ccc(-c2cn(-c3ccc(Br)cc3)c(C(=O)O)c2C(=O)O)cc1`, the melting point lay within 217 to 221 °C.

Regarding `O=S(=O)(NC1CC1)c1cccc(-c2cc(-c3nc(-c4ccc(C(F)(F)F)cc4)cc(C(F)(F)F)n3)ccn2)c1`, the melting point worked out at 196 °C.

With `C1=C(COc2ccccc2)CCN(Cc2c[nH]c3ncccc23)C1`, the melting point lay in the range of 161 to 163 °C.

In the case of `N#Cc1c(-c2ccc(Cl)cc2)[nH]c(C(F)(F)F)c1Cl`, the melting point is 242 to 243 °C.

Take `CCN(CC)Cc1cccn1N(C)c1ccnc2cc(C(F)(F)F)ccc12`: the melting point is 64 to 66 °C.

Take `ClCSc1nc(Cl)c(Cl)nc1Cl`: the melting point is 68 to 70 °C.

Regarding `Cc1ccccc1CN1CCC(c2cc(-c3ccc(Cl)cc3)[nH]n2)CC1`, the melting point was 142 to 143 °C.

On to `O=C(CCCCC(=O)Oc1ccc(NC(=O)c2ccccc2)cc1)CC1CC(O)CC1=O` (configuration not stated), for which the melting point lay within 143 to 146 °C.

`Cc1nn(-c2ccc(C(F)(F)F)cn2)cc1COc1cccc(OC(C)(C)C(=O)O)c1` registered a melting point of 152 to 153 °C.

For `Cc1ccccc1N(Cc1cccnc1)S(C)(=O)=O`, the melting point was in the range of 97 to 98 °C.
